The values that follow come from US20040014813A1, “Anthelminthic agents for the prevention of parasitic infections in humans and animals II” (priority 2000, published 2004).

Each structure is given as a SMILES string.

The test system of data set [1] is Schistosoma mansoni cercariae. As to the kind of experiment: Activity against Schistosoma mansoni cercariae (survival/mobility under stereomagnifier). It counts as cell-based. Further details: key: no effect during the entire test period of 120 minutes; 1: weak effect (the cercariae have a strongly reduced mobility); 2: good effect (the cercariae are only slightly mobile and bent); 3: full effect (the cercariae are completely immobile). The following applies: 500 >1/l final concentration of the active compounds; 5 μl active compound in 25 μl PEG300 + 9 ml aquarium water + 1 ml cercariae suspension; test period 120 minutes. The protocol:
Activity Against Schistosoma Mansoni Cercariae
[500 >1/l Final Concentration of the Active Compounds]
Snails (Biomphalaria glabrata) were infected by incubating each of them with 8 miracidia in 10 ml of water overnight. About 6 to 9 weeks after the infection, cercariae were obtained by irradiating the snails, which had been kept in darkness, with light, followed by collection of the swarming cercariae within 2 hours.
Such an amount of cercariae-containing water (1 or 2 ml, see below) was added to the test batches that each batch contained about 100 to 150 cercariae.
5 μl of active compound were mixed thoroughly with 25 μl of PEG300. 9 ml of aquarium water was then added, and the batch was shaken vigorously. After (delayed) addition of 1 ml of cercariae suspension, survival of the cercariae was in each case observed immediately using a stereomagnifier.

In data set [2] the test system is cercariae of Schistosoma mansoni. The settings on record: literature (Fripp and Armstrong 1973; Salafsky et al. 1998); cited from earlier work.
Data set [3] has the same test system. The settings on record: literature (Bruce et al. 1992), monkeys, topical; cited from earlier work.
The conditions of data set [4]: EU Directive on Dangerous Substances; Registry of Toxic Effects of Chemical Substances; cited from earlier work.

As for `CC(C)(C)C(=O)N1CCCCC1CCO` (stereo not drawn), the Assessment in data set [1] came to 3.
The same measure, in the same setting: in the case of `CCCCC(=O)N1CCCCC1CCO` (stereo not drawn) it was 2; in that of `CCCCC(=O)N1CCCCC1CCOC` (stereo not drawn), 2; in that of `CCN(CC)C(=O)CC1CCCCC1`, 3.
Regarding `CCN(CC)C(=O)c1cccc(C)c1` [N,N-Diethyl-m-toluamide (DEET), N,N-Diethyl-m-toluamide], the “effect on cercariae of Schistosoma mansoni” value in data set [2] is given as “acts against cercariae”.
Regarding `O=C(Nc1ccc([N+](=O)[O-])cc1Cl)c1cc(Cl)ccc1O` [Niclosamide], the “action against the penetration of cercariae” value in data set [3] is given as “acts against the penetration of cercariae”. Besides, in data set [4], the toxicity result is reported as “may possibly cause inheritable genetic damage”.
For `Oc1c(Cl)cc(Cl)c(Cl)c1Cc1c(O)c(Cl)cc(Cl)c1Cl` [hexachlorophene], the “effect on cercariae of Schistosoma mansoni” value in data set [2] is listed as “lethal effect”. Also, the toxicity entry in data set [4] was “toxic on contact with the skin and when swallowed”.
